A value given as a limit tells only on which side of the number the result lay.

Experimental findings from US11512085B2, “Heteroaryl compound having drug activity” (SHANGHAI DUDE MEDICAL TECHNOLOGY CO., LTD, priority 2017, dated 2022) are described below.

One data set deals with DB. The experiment in a line: In vitro tumor cell proliferation (CellTiter-Glo), DB. Format: cell-based. The note with it: Homo sapiens, 72 h, read-out: Growth IC50. As for the experimental part:
(§1) Biological Embodiment 8: Study on Effects of Active Compounds for Inhibiting In Vitro Tumor Cell Proliferation
(§2) Promega CellTiter-Glo cell activity detection kit by luminescence (Promega-G7573).
(§3) Tumor cell lines were cultured in a 5% of CO2 incubator at 37° C. according to respective culture conditions; and periodic passage was performed, and cells positioned in a logarithmic phase were taken for planking.
(§4) 3) 90 μL of cell suspension was added into each well of the culture plate, and a culture solution containing no cell was added into blank control;
(§5) 4) the culture plate was cultured overnight in the 5% of CO2 incubator having relative humidity of 100% at 37° C.
(§6) Preparation of a 400× compound storage plate: the compound was diluted from the maximum concentration gradient to the lowest concentration with DMSO. […]
(§7) The following steps were performed according to the specification of the Promega CellTiter-Glo cell activity detection kit by luminescence (Promega-G7573). […]
(§8) 9) the luminescence signal was detected on the 2104 EnVision plate reader.
Background: ATP-based viability assays read luminescence as a measure of living cells.

In another data set the test system is Jeko-1. The experiment in a line: In vitro tumor cell proliferation (CellTiter-Glo), Jeko-1. The settings on record: Homo sapiens, JeKo-1, 72 h; read-out: Growth IC50. It counts as cell-based. As for the experimental part: as §1, §2, §3, §4, §5, §6, §7, §8
The target in a further data set is Btk (Homo sapiens, UniProt Q06187). The experiment in a line: Determination of Btk enzyme inhibitory activity. Format: biochemical. The note with it: 2 nM BTK. As for the experimental part: Determination of Btk Enzyme Inhibitory Activity
Btk, sequence (Q06187 whole entry): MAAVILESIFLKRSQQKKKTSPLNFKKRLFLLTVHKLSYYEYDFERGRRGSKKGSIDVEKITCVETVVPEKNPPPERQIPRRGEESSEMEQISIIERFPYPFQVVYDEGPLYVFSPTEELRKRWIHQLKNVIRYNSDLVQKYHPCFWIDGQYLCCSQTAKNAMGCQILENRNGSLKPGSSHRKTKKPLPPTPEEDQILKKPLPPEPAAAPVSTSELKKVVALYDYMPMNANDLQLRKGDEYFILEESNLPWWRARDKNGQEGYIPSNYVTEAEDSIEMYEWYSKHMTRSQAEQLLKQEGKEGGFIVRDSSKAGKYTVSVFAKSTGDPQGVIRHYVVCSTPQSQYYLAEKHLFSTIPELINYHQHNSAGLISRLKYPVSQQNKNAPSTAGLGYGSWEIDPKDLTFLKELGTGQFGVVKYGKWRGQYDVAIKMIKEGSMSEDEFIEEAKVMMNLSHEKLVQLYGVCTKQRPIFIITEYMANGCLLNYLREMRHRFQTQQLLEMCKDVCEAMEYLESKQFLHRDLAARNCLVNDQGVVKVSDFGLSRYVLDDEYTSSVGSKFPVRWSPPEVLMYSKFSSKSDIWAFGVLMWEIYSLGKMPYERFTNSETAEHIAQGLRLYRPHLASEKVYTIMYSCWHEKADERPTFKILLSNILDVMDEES
Buffer solution: 50 mM Hepes pH 7.0, 0.1 mM Orthovanadate, 5 mM MgCl2, 0.01% of BSA;
1 mM TK-peptide, […], 50 nM SEB;
Pre-incubation for 15 minutes;
Reaction at 23° C. for 90 minutes;
Color Development Reaction:
Developing buffer solution: 50 mM Hepes pH8.0, 0.8 M KF, 20 mM EDTA, 0.01% BSA;
Reaction at 23° C. for 60 minutes;

A further data set relates to SU-DHL-6. The experiment in a line: In vitro tumor cell proliferation (CellTiter-Glo), SU-DHL-6. It counts as cell-based. The note with it: Homo sapiens, SU-DHL-6, 72 h; read-out: Growth IC50. The procedure: as §1, §2, §3, §4, §5, §6, §7, §8
A further data set has as its system WSU-NHL. The experiment in a line: In vitro tumor cell proliferation (CellTiter-Glo), WSU-NHL. Format: cell-based. The settings on record: Homo sapiens, 72 h, read-out: Growth IC50. The procedure:
as §1, §2, §3, §4, §5, §6, §7, §8

The next data set has as its system DOHH-2. The experiment in a line: In vitro tumor cell proliferation (CellTiter-Glo), DOHH-2. Format: cell-based. The settings on record: Homo sapiens, DOHH-2, 72 h; read-out: Growth IC50. As for the experimental part: as §1, §2, §3, §4, §5, §6, §7, §8
The next data set deals with Mino. The experiment in a line: In vitro tumor cell proliferation (CellTiter-Glo), Mino. Format: cell-based. The settings on record: Homo sapiens, 72 h, read-out: Growth IC50. As for the experimental part: as §1, §2, §3, §4, §5, §6, §7, §8
The nature of data set [1]: Rat liver microsome stability test. It counts as in vitro ADME. As for the experimental part:
Preparation of Buffer Solution:
1. 100 mM potassium phosphate buffer solution, pH of 7.4
Preparation of Test Compound Solution:
1. A test compound solution (10 mM, 5 μL) was diluted with a methanol solution (495 μL), and a 100 μM solution was prepared;
2. Preparation of a working solution: the above solution (50 μL) was diluted with the potassium phosphate buffer solution (450 μL, 100 mM) so as to obtain diluents (10 μM).
NADPH Regeneration System (Final Concentration 1 Unit/mL of Isocitrate Dehydrogenase):
1. beta-NADP, supplier: sigma Cat. No. N0505
3. isocitrate dehydrogenase, supplier: sigma Cat. No. 12002
Cold acetonitrile containing 100 ng/mL of tolbutamide and 100 ng/mL of labetalol serves as an internal standard
1. a 10 μL/well of working solution was added into plates (T0, T5, T10, T20, T30, T60, NCF60) beyond the blank;
2. a 80 μL/well of microsome solution was added, and incubation was performed at 37° C. for 10 min;
3. a 10 μL of 100 mM phosphate buffer solution was added into each well of an NCF60 plate, the plate was placed in a warm bath at 37° C., and timing started;
4. a 10 μL/well of NADPH regeneration system was added after preheating, and a reaction started;
5. incubation was performed at 37° C., and timing started
6. a 300 μL/well of stop solution was added (4° C., containing 100 ng/mL of tolbutamide and 100 ng/mL of labetalol) to end the reaction;
7. the plate was shaken for 10 min;
8. centrifugation was performed at 4° C. at a rotation speed of 4000 rpm; and
9. sample LC/MS/MS detection was performed.
Data Analysis Use Equation of First Order Kinetics to Calculate t½ and Clint(Mic): […]
equation of first order kinetics: […]
Background: Liver microsomes are vesicles of endoplasmic reticulum, rich in cytochrome P450 enzymes.

For a further data set, the system named is TMD8. The experiment in a line: In vitro tumor cell proliferation (CellTiter-Glo), TMD8. The settings on record: Homo sapiens, TMD8, 72 h; read-out: Growth IC50. Format: cell-based. The procedure: as §1, §2, §3, §4, §5, §6, §7, §8

The term IC50 denotes the midpoint of a concentration-inhibition curve. For orientation: half-life means the time in which the quantity being followed falls by half. The low end stands for fast loss, the high end for slow loss. In general, CLint scaled refers to the rate of metabolic loss divided by the concentration. A higher CLint scaled goes with rapid turnover. As to `C=CC(=O)NN1CCCC(n2nc(-c3ccc(Oc4ccccc4)cc3)c3c(N)ncnc32)C1` (stereo not shown) [Embodiment 6, N-(3-(4-amino-3-(4-phenoxyphenyl)-1H-pyrazolo[3,4-D]pyrimidine-1-yl)-1-piperidyl)-acrylamide], the half-maximal inhibitory concentration (IC50) in the data set with DB is over 10000 nM; in the data set on Jeko-1, over 10000 nM; at Btk, 0.27 nM; with SU-DHL-6, over 10000 nM; in the data set on WSU-NHL it was 1020 nM; in the data set on DOHH-2, under 3 nM. The IC50 amounted to 2170 nM with Mino and 0.85 nM with TMD8. Also, the “Remaining (*NCF = 60 min)” value in [1] (RLM 0.5, 60 min, no co-factor) turned out to be 105.4%. Besides, in [1] (RLM 0.5, 60 min with NADPH regenerating system), the “Remaining (T = 60 min)” value worked out at 1.1%. Also, the half-life at 1 µM in data set [1] (rat, liver microsomes, pH 7.4, RLM 0.5 (0.5 mg protein/mL)) was found to be 8.9 min. For the same compound, the microsomal CLint at 1 µM in data set [1] (rat, liver microsomes, pH 7.4, RLM 0.5, read-out: CLint(mic)) is 155 µL/min/mg. For the same compound, the intrinsic metabolic clearance (CLint scaled) at 1 µM in [1] (rat, liver microsomes, pH 7.4, RLM 0.5, scaled from CLint(mic)) turned out to be 280 mL/min/kg.
